Assay results published in PMC4635352, “Preventive effect of oral goshajinkigan on chronic oxaliplatin-induced hypoesthesia in rats” (Scientific Reports, 2015).

Experiments:
neuro2A cells = settings: oxaliplatin 30–300 μM, 1 hour
Experimental: Mouse neuroblastoma Neuro2A cells (ATCC-CCL 131) were grown in Dulbecco’s MEM (Life Technologies) containing 10% fetal bovine serum with 100 units/mL penicillin and 100 mg/mL streptomycin (Life Technologies). The cells were maintained at 37 °C in a humidified atmosphere with 5% CO2 and 95% air. For measurement of ROS generation, the cells were seeded at 2.0 × 10^4 cells/well in poly-D-lysine-coated 96-well plates (BD Falcon, Franklin Lakes, NJ, USA). After plating, the cells were maintained in Dulbecco’s MEM (without phenol red or serum, Life Technologies) with 100 units/mL penicillin and 100 mg/mL streptomycin for more than 16 hours until subsequent experiments. Intracellular ROS generation caused by oxaliplatin in neuro2A cells was determined using CM-H2DCFDA. […] The cells were incubated for 30 minutes with 10 μM CM-H2DCFDA at 37 °C, followed by treatment of drugs for 1 hour. Fluorescence intensity was measured using a microplate reader (Infinite M200; Tecan Japan Co., Ltd., Kanagawa, Japan) at 485 nm (excitation) /520 nm (emission).

[1] = platinum concentration in dorsal root ganglia (ICP-MS); type: in vivo, rat; settings: oxaliplatin 4 mg/kg i.p. twice a week; 4 and 8 wks
Experimental: Lumbar L4-L6 DRG were isolated from each group on days 26 and 54 after oxaliplatin treatment. The tissue samples were pretreated by heating in an acid solution, and the tissue platinum concentration was analyzed using an ICP-MS system (Agilent 7700s; Agilent Technologies, Inc., Santa Clara, CA, USA). The lower limit for quantification of platinum in tissue was 2.0 ng.

oxaliplatin-treated rats [2] = test: hot plate test for heat hypoalgesia in oxaliplatin-treated rats; type: in vivo, rat
Experimental: (§1) To establish the oxaliplatin-induced chronic neuropathy rat model, oxaliplatin (4 mg/mL/kg) or its vehicle (5% glucose solution) was injected intraperitoneally twice weekly for 8 wks. Rats were orally administered GJG (0.3 or 1.0 g/10 mL/kg) or DW 5 times a week for 8 wks.
(§2) Cold hyperalgesia induced by oxaliplatin was assessed by an acetone test[10]. The acetone test was done on days 24, 38 and 52. Briefly, 250 μL of acetone (Wako Pure Chemical Ltd., Osaka, Japan) was sprayed onto the plantar skin of the right hind paw, and the time spent in elevation and licking of the stimulated hind paw for 60 seconds was measured. Acetone was applied twice at a 15-minute interval, and the average withdrawal response time was calculated. A hot plate test was performed for assessment of thermal hyperalgesia on days 25, 39 and 54. Rats were placed in a Hot/Cold Plate Analgesia Meter (MK-350HC; Muromachi Kikai Co., Ltd., Tokyo, Japan) that kept the temperature of the plate at 50 °C. A cut-off time of 45 seconds was set to prevent tissue damage. The latency of withdrawal response, such as licking and flinching of each hind paw, was recorded.

oxaliplatin-treated rats [3] = test: acetone test for cold hyperalgesia in oxaliplatin-treated rats; type: in vivo, rat; settings: oxaliplatin 4 mg/kg i.p. twice weekly; 4, 6 and 8 wks; vs naïve control
Experimental: as §1, §2

oxaliplatin-treated rats [4] = test: peripheral blood flow by two-dimensional laser speckle Blood Flow Imager; type: in vivo, rat; settings: for peripheral blood flow, Head / peripheral blood flow, Left ear / peripheral blood flow, Left forelimb / peripheral blood flow, Left hindlimb / peripheral blood flow, Right ear / peripheral blood flow, Right forelimb / peripheral blood flow, Right hindlimb / peripheral blood flow, Tail: ratio to naïve rats
Experimental: as §1
Peripheral blood flow was measured using a two-dimensional laser speckle Blood Flow Imager (Omegazone OZ-2; Omegawave, Inc., Tokyo, Japan). Rats were anesthetized with isoflurane for induction and urethane intraperitoneally for maintenance. Body temperature was maintained at 37.5 ± 0.5 °C using a heating pad. Blood pressure and heart rate were concurrently measured by a tail-cuff apparatus (BP-98A-L; Softron, Tokyo, Japan). Peripheral blood flow in the head, ears, forelimbs, hindlimbs and tail of rats was measured at four defined time points (day 3, 10, 26 and 54). Values were analyzed by analysis software (LIA-V210, Softron). Real image and color-coded images were obtained in high-resolution mode (639 × 480 pixels; 2 images/second). The blood flow value in each peripheral site is expressed as mean blood flow in the region of interest (ROI). The ratio of blood flow rate of treated animals to naïve animals was calculated (%).

rat sciatic nerve = test: histological analysis of the sciatic nerve (electron microscopy, ratio of degenerated myelinated fibers); type: in vivo; settings: oxaliplatin-treated group; 8 wks; n = 3
Experimental: as §1
The rats were deeply anesthetized with pentobarbital (50 mg/kg), and transcardially perfused with phosphate-buffered saline (pH 7.4), followed by 2.5% phosphate-buffered glutaraldehyde. The sciatic nerves were rapidly dissected, and the samples were kept overnight in the same fixative at 4 °C. The fixed fibers were post-fixed with 1% osmium tetroxide solution for 3 hours, dehydrated in a graded alcohol series, and embedded in Epon815. For light microscopy, semi-thin sections were cut from each block and stained with toluidine blue. The stained sections were observed using a light microscope (BX60, Olympus Corp., Tokyo, Japan). For electron microscopy, ultra-thin sections were cut and stained with uranyl acetate and lead citrate. […] The numbers of normal- and degenerated-myelinated nerve fibers were counted in the area of 0.05 mm^2 (0.01 mm^2 × 5 areas), and the ratio of degenerated nerve fibers was calculated as the percentage of total nerve fibers in each group. In this study, the pathological experts who investigate myelination or demyelination analyzed light and electron microscopy in detail.

oxaliplatin-treated rats [5] = test: wire hang test of neuromuscular strength; type: in vivo, rat; settings: wire screen inclined to 90° or 180° for 20 seconds; among groups
Experimental: as §1
(§3) A rotarod test was carried out on day 57 to evaluate if chronic treatment of oxaliplatin had any effect on motor coordination. Rats were placed on the rotarod (SN-497; Shinano-Seisakusho Ltd., Tokyo, Japan), which is a horizontal rod 10 cm diameter, with their heads directed against the direction of rotation at 5 rpm. The time that the animal stayed on the rod (up to maximum of 120 seconds) was recorded. A wire hang test was performed for assessment of neuromuscular strength on day 53. Animals were placed on the wire net that was held horizontally. The wire screen was first inclined at 90 ° for 20 seconds, then turned to 180 ° for a further 20 seconds. The latency to fall from the wire net inclined at the respective angles was recorded.

oxaliplatin-treated rats [6] = test: rotarod test of motor coordination; type: in vivo, rat; settings: 8 wks; among the tested groups
Experimental: as §1, §3

[7] = design: method as in PMID 11223836; settings: rats, 5 mg/kg oxaliplatin intraperitoneally; cited from earlier work
[8] = day 3, L-OHP 4 mg/kg i.p. twice weekly
[9] = day 10, L-OHP 4 mg/kg i.p. twice weekly

## O=C1[O][Pt]2([NH][C@@H]3CCCC[C@H]3[NH]2)[O]C1=O [oxaliplatin]
neuro2A cells
  ROS generation in neuro2A cells: increased ROS generation
[1]
  platinum accumulation in the rat DRG: directly correlated with the duration of oxaliplatin treatment
oxaliplatin-treated rats [2]; 4 wks after oxaliplatin treatment, among all groups
  latency of withdrawal to heat stimulation (hot plate): no significant difference
oxaliplatin-treated rats [2]; oxaliplatin vs naïve control, 6 wks (p < 0.05) and 8 wks (p < 0.01)
  latency of withdrawal to heat stimulation (hot plate): gradually increased
oxaliplatin-treated rats [3]
  duration of withdrawal responses to cold stimulation by acetone: significantly increased
oxaliplatin-treated rats [4]; 4 weeks, L-OHP + DW
  peripheral blood flow, Head: 89.9 ± 2.6 %
  peripheral blood flow, Left ear: 95.7 ± 2.9%
  peripheral blood flow, Left forelimb: 87.3 ± 2.8 %
  peripheral blood flow, Left hindlimb: 82.0 ± 4.5 %
  peripheral blood flow, Right ear: 91.2 ± 3.4%
  peripheral blood flow, Right forelimb: 89.0 ± 2.7 %
  peripheral blood flow, Right hindlimb: 88.3 ± 5.1%
  peripheral blood flow, Tail: 100.1 ± 2.2%
oxaliplatin-treated rats [4]; 8 weeks, L-OHP + DW
  peripheral blood flow, Head: 93.5 ± 3.8%
  peripheral blood flow, Left ear: 91.4 ± 3.2%
  peripheral blood flow, Left forelimb: 97.2 ± 1.5%
  peripheral blood flow, Left hindlimb: 95.7 ± 4.7%
  peripheral blood flow, Right ear: 92.3 ± 4.1%
  peripheral blood flow, Right forelimb: 100.3 ± 2.0%
  peripheral blood flow, Right hindlimb: 102.3 ± 4.4%
  peripheral blood flow, Tail: 96.3 ± 3.3%
oxaliplatin-treated rats [4]; [8]
  peripheral blood flow, Head: 108.3 ± 2.9%
  peripheral blood flow, Left ear: 104.8 ± 4.3%
  peripheral blood flow, Left forelimb: 97.5 ± 3.1%
  peripheral blood flow, Left hindlimb: 110.2 ± 0.9%
  peripheral blood flow, Right ear: 101.5 ± 5.6%
  peripheral blood flow, Right forelimb: 100.8 ± 1.9%
  peripheral blood flow, Right hindlimb: 114.2 ± 2.1%
  peripheral blood flow, Tail: 98.8 ± 2.5%
oxaliplatin-treated rats [4]; [9]
  peripheral blood flow, Head: 91.9 ± 4.5%
  peripheral blood flow, Left ear: 85.3 ± 2.2 %
  peripheral blood flow, Left forelimb: 93.1 ± 3.8%
  peripheral blood flow, Left hindlimb: 85.8 ± 5.0%
  peripheral blood flow, Right ear: 87.7 ± 2.0 %
  peripheral blood flow, Right forelimb: 91.4 ± 3.1%
  peripheral blood flow, Right hindlimb: 86.5 ± 6.9%
  peripheral blood flow, Tail: 90.9 ± 3.4%
oxaliplatin-treated rats [4]; oxaliplatin, 4 wks
  mean blood flow in the fore- and hindlimbs: significantly decreased
Rat sciatic nerve
  ratio of degenerated axons in total myelinated nerve fibers: 8.8 ± 2.4%
oxaliplatin-treated rats [5]
  muscle strength (wire screen hanging test): no significant differences
oxaliplatin-treated rats [6]
  motor coordination (rotarod test): no significant differences
[7]
  time for which maximum plasma platinum was maintained: 2 h
  time to maximum plasma concentration of platinum: approximately 90 minutes
